Measured values as given in patent US10603319B2, “Pyrimidine derivatives and their use in treating or preventing a respiratory syncytial virus infection” (REVIRAL LIMITED, priority 2016, dated 2020).

How the values were obtained:
[1] = Liver microsomal stability, rat; assay type: in vitro ADME, Sprague Dawley rats; conditions: male, Sprague Dawley, pooled liver microsomes, pH 7.4, 0.5 mg/mL protein, read-out: Liver Microsomal Stability (T1/2/mins) rat
Method: (§1) Microsomal Incubation: Experimental Procedure
(§2) Pooled human liver microsomes (pooled male and female), pooled rat liver microsomes (male Sprague Dawley rats) and pooled dog liver microsomes (male Beagle dog) are purchased from a reputable commercial supplier and stored at −80° C. prior to use.
(§3) Microsomes (final protein concentration 0.5 mg/mL), 0.1 M phosphate buffer pH 7.4 and test compound (final substrate concentration 3 μM; final DMSO concentration 0.25%) are pre-incubated at 37° C. prior to the addition of NADPH (final concentration 1 mM) to initiate the reaction. The final incubation volume is 50 μL. A control incubation is included for each compound tested where 0.1 M phosphate buffer pH 7.4 is added instead of NADPH (minus NADPH). Two control compounds are included with each species. All incubations are performed singularly for each test compound.
(§4) Compounds are incubated for 0, 5, 15, 30 and 45 min. The control (minus NADPH) is incubated for 45 min only. […] Following protein precipitation, the sample supernatants are combined in cassettes of up to 4 compounds, internal standard is added and samples analysed by LC-MS/MS. From a plot of ln peak area ratio (compound peak area/internal standard peak area) against time, the gradient of the line is determined. Subsequently, half-life and intrinsic clearance are calculated

RSV A2_F = biological target: T1, RSV A2_F (Human respiratory syncytial virus A, UniProt P03420); assay: RSV fusion assay (luciferase reporter, HEK 293T/17 cells transfected with A2_F); assay type: cell-based; conditions: Fusion activity IC50 μM, HEK 293T/17 cells, 24 hr
T1 construct: expressed in transfected cells; host or cells: HEK 293T/17
T1 sequence (P03420 137-574): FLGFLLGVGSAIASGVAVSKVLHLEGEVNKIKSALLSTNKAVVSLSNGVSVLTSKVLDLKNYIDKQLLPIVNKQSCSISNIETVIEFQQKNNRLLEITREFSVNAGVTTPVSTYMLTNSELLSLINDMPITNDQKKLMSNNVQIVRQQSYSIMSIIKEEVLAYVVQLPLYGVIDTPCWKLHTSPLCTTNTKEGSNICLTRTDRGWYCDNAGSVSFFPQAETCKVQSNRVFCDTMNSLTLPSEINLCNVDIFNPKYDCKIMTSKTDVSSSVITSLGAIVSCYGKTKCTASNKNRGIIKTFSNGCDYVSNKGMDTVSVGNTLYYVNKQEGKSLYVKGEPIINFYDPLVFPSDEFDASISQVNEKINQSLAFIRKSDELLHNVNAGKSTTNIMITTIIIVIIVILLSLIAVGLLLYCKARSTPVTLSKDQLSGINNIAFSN
T1 sequence (P03420 26-109): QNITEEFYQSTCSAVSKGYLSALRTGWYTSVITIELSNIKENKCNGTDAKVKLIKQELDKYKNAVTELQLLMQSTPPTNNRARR
Method: HEK 293T/17 cells were cultured in T75 culture flasks in Dulbecco's medium (DMEM) containing 10% FBS and 1× Penicillin-Streptomycin (Pen/Strep) and warmed to 37° C. prior to use. The cells were passaged by first washing briefly with 3 ml phosphate buffered saline (PBS) followed by a 4 min incubation with […] at 37° C. 7 ml media was then added to the flask and the cells dispersed via pipetting (×3) against the bottom of the flask. Two further T75 flasks were each seeded with 2×10^6 cells in 15 ml fresh media.
Cells were seeded on the T75 plates at the same density as on the 6-well plates the area of a T75 flask and one 1.75 cm radius well from a 6-well plate were compared. 7.79×2 ml of 3×10^5 cells ml^−1 was used to seed a single T75 flask.
HEK cells were removed from a T75 flask as described above. The cells were counted and diluted to 3×10^5 cells/ml in fresh media. Two T75 flasks were each seeded with 15.58 ml diluted cells.
The plasmid DNA (for pFR-Luc and pcDNA3.1_Gal4/NFκB) to be transfected into the HEK cells was first prepared in serum free media (DMEM+Pen/Strep) containing the transfection reagent Fugene 6 (Promega). Transfections were set up as follows (Luc=pFR_Luc, Gal4=pcDNA3.1+_Gal4/NFκB, A2_F=pcDNA3.1+_A2_F)
Serum free media was placed in a 1.5 ml eppendorf tube then the fugene 6 was added into the media. The tube was vortexed for 1 s before being incubated at RT for 5 min. The plasmid DNA was then added to the tube, vortexed for 1 s, then incubated at RT for 15 min
The transfection reagents were then added to the appropriate T75 flask by tipping the flask on end and adding the reagents directly to the media already in the flask. The flask was then tipped on its back so the media could be mixed thoroughly whilst not disturbing the cells before placing the flask the right way up and incubating overnight at 37° C. and 5% CO2.
Compounds were diluted (in a polypropylene round-bottomed 96 well plate) 1:3 in a twelve point dilution curve to give top [final] of either 3.3 μM, 1 μM, 500 nM 200 nM or 100 nM. The Control compound was always run at a concentration of 100 nM.
The cells were then counted and diluted to 4×10^5 cells/ml in fresh media. 50 μl of transfection population 1 cells were added to all wells of the assay plates. 100 μl diluted compound (2 rows per compound), standard curve (one row) and controls (100 nM RV (100% inhibition, four wells), DMSO (0% inhibition, eight wells)) were added to the appropriate wells. 50 μl of the diluted (4×10^5 cells/ml) transfection population 2 cells when then added to all wells.
The plates were then incubated for 24 hr at 37° C. and 5% CO2
Buffers were prepared for the luciferase assay (20 mM tricine, 10 mM MgSO4, 1 mM EDTA, 10 mM DTT) and lysis (25 mM tris-phosphate, 8 mM MgCl2, 1 mM DTT, 1% Triton X-100, 15% glycerol) and stored at −20° C.
Luminescence was measured as described:
Media was discarded into Virkon and the plates washed with 100 ul PBS per well. 20 ul/well of lysis buffer was added to each well and incubated shaking for 5 min at RT. Luciferin was added to LAAB at a dilution of 1:50 to give a working luciferin buffer. 100 μl working luciferin buffer was added to each well and luminescence was measured immediately. […]

[2] = Liver microsomal stability, human; assay type: in vitro ADME; conditions: both sexes, pooled liver microsomes, pH 7.4, 0.5 mg/mL protein, read-out: Liver Microsomal Stability (T1/2/mins) human
Method: as §1, §2, §3, §4

Work on `NC1CCN(c2ncc(CN3C(=O)C4(CC4)c4ccc(F)cc43)c(N[C@H]3CC[C@H](O)CC3)n2)C1` (stereo partly drawn) [Compound 2, 1′-((2-(3-Aminopyrrolidin-1-yl)-4-(((1r,4r)-4-hydroxycyclohexyl)amino)pyrimidin-5-yl)methyl)-6′-fluorospiro[cyclopropane-1,3′-indolin]-2′-one] yielded a half-life at 3 μM [1] of 2.17 h, an IC50 (RSV A2_F) of 0.237 µM and a half-life at 3 μM [2] of 2.82 h.
